According to patent publication US9474790B2, “Stable, protracted GLP-1/glucagon receptor co-agonists for medical use” (Novo Nordisk A/S, priority 2013, dated 2016):
Numbered stars: 1 amine (or outer) side, 2 acyl side, 3 side chain; on linkers, the order of the positions; unused ones are H or OH. Bridge positions count the residues as written; N and C are the ends. Square brackets hold non-standard residues; d marks the D form. Side chains are listed from the residue outwards. Peptide text beside a SMILES is read from it. I, II: the chains in the order shown. * marks the point of attachment. C18 diacid = O=C(O)CCCCCCCCCCCCCCCCC(=O)*; γGlu = O=C(O)[C@H](CCC(=O)[*:2])N[*:1]; Ac4c = NC1(C(=O)O)CCC1; AEEA = NCCOCCOCC(=O)O; Aib = CC(C)(N)C(=O)O

Each molecule was assayed against T1, human GLP-1 receptor (Homo sapiens, UniProt P43220) (assay: GLP-1 receptor binding, 125I-GLP-1 displacement SPA on isolated membranes). Settings: displacement of 125I-GLP-1 from membranes; read-out: IC50 GLP-1R.
T1 construct: expressed in transfected cells; host or cells: BHK cells (parent BHKTS13), clone FCW467-12A/KZ10-1, with CRE luciferase
T1 sequence (P43220 24-463): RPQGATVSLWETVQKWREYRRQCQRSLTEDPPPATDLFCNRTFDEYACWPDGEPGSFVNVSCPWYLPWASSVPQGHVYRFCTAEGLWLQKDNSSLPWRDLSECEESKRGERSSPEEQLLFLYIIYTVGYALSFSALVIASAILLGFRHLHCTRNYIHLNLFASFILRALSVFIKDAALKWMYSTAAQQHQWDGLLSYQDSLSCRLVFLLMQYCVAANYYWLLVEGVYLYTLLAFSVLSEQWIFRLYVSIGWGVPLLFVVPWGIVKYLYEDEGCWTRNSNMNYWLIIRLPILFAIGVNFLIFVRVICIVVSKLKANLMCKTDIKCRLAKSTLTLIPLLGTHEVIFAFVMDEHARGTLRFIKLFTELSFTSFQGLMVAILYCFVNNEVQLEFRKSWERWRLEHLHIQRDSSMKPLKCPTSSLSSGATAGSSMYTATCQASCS
Procedure, shortened: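 SPA displacement of 125I-GLP-1(7-36)NH2 from membranes of BHK cells expressing human GLP-1 receptor, with WGA beads, in 50 mM HEPES, 5 mM EGTA, 5 mM MgCl2, 0.005% Tween 20, pH 7.4. Incubated 2 h at 30°C; IC50 by non-linear regression, run at ≤0.001% or 2.0% final serum albumin.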
Molecule CC(C)C[C@H](NC(=O)[C@H](CC(C)C)NC(=O)[C@H](Cc1c[nH]c2ccccc12)NC(=O)[C@H](CCC(N)=O)NC(=O)[C@@H](NC(=O)[C@H](Cc1ccccc1)NC(=O)[C@H](CCC(=O)O)NC(=O)[C@H](CCC(N)=O)NC(=O)[C@H](C)NC(=O)[C@H](C)NC(=O)[C@H](CCCCN)NC(=O)[C@H](CO)NC(=O)[C@H](CC(=O)O)NC(=O)[C@H](CC(C)C)NC(=O)[C@H](Cc1ccc(O)cc1)NC(=O)[C@H](CCCCN)NC(=O)[C@H](CO)NC(=O)[C@H](CC(C)C)NC(=O)[C@H](CC(=O)O)NC(=O)[C@H](CO)NC(=O)[C@@H](NC(=O)[C@H](Cc1ccccc1)NC(=O)[C@@H](NC(=O)CNC(=O)[C@H](CCC(N)=O)NC(=O)C(C)(C)NC(=O)[C@@H](N)Cc1c[nH]cn1)[C@@H](C)O)[C@@H](C)O)C(C)C)C(=O)N[C@@H](CC(N)=O)C(=O)N[C@@H](CCCCNC(=O)CC[C@H](NC(=O)CC[C@H](NC(=O)COCCOCCNC(=O)COCCOCCNC(=O)CC[C@H](NC(=O)CCCCCCCCCCCCCCCCC(=O)O)C(=O)O)C(=O)O)C(=O)O)C(N)=O [Example 8, N^ε29-[(4S)-4-carboxy-4-[[(4S)-4-carboxy-4-[[2-[2-[2-[[2-[2-[2-[[(4S)-4-carboxy-4-(17-carboxyheptadecanoylamino)butanoyl]amino]ethoxy]ethoxy]acetyl]amino]ethoxy]ethoxy]acetyl]amino]butanoyl]amino]butanoyl]-[Aib2,Leu10,Lys17,Ala18,Glu21,Leu27,Lys29]-Glucagon amide] (H-H[Aib]QGTFTSDLSKYLDSKAAQEFVQWLLNK([γGlu-γGlu-AEEA-AEEA-γGlu-C18 diacid])-NH2; N-terminus assumed) has an IC50 of 1.1 nM. For CC(C)C[C@H](NC(=O)[C@H](Cc1ccc(O)cc1)NC(=O)[C@H](CCCCN)NC(=O)[C@H](CO)NC(=O)[C@H](CC(C)C)NC(=O)[C@H](CC(=O)O)NC(=O)[C@H](CO)NC(=O)[C@@H](NC(=O)[C@H](Cc1ccccc1)NC(=O)[C@@H](NC(=O)CNC(=O)[C@H](CCC(N)=O)NC(=O)C(C)(C)NC(=O)[C@@H](N)Cc1c[nH]cn1)[C@@H](C)O)[C@@H](C)O)C(=O)N[C@@H](CC(=O)O)C(=O)N[C@@H](CCCCNC(=O)CC[C@H](NC(=O)CC[C@H](NC(=O)COCCOCCNC(=O)COCCOCCNC(=O)CC[C@H](NC(=O)CCCCCCCCCCCCCCCCC(=O)O)C(=O)O)C(=O)O)C(=O)O)C(=O)N[C@@H](CCCNC(=N)N)C(=O)N[C@@H](CCCNC(=N)N)C(=O)N[C@@H](C)C(=O)N[C@@H](CCCNC(=N)N)C(=O)N[C@@H](CCC(=O)O)C(=O)N[C@@H](Cc1ccccc1)C(=O)N[C@H](C(=O)N[C@@H](CCC(N)=O)C(=O)N[C@@H](Cc1c[nH]c2ccccc12)C(=O)N[C@@H](CC(C)C)C(=O)N[C@@H](CC(C)C)C(=O)N[C@@H](CC(N)=O)C(=O)N[C@H](C(N)=O)[C@@H](C)O)C(C)C [Example 10, N^ε16-[(4S)-4-carboxy-4-[[(4S)-4-carboxy-4-[[2-[2-[2-[[2-[2-[2-[[(4S)-4-carboxy-4-(17-carboxyheptadecanoylamino)butanoyl]amino]ethoxy]ethoxy]acetyl]amino]ethoxy]ethoxy]acetyl]amino]butanoyl]amino]butanoyl]-[Aib2,Leu10,Lys16,Arg20,Glu21,Leu27]-Glucagon amide] (H-H[Aib]QGTFTSDLSKYLDK([γGlu-γGlu-AEEA-AEEA-γGlu-C18 diacid])RRAREFVQWLLNT-NH2; N-terminus assumed), the IC50 was 0.5 nM. Work on CC(C)C[C@H](NC(=O)[C@H](CC(C)C)NC(=O)[C@H](Cc1c[nH]c2ccccc12)NC(=O)[C@H](CCC(N)=O)NC(=O)[C@@H](NC(=O)[C@H](Cc1ccccc1)NC(=O)[C@H](CCC(=O)O)NC(=O)[C@H](CCCNC(=N)N)NC(=O)[C@H](C)NC(=O)[C@H](CCCNC(=N)N)NC(=O)[C@H](CCCNC(=N)N)NC(=O)[C@H](CO)NC(=O)[C@H](CC(=O)O)NC(=O)[C@H](CC(C)C)NC(=O)[C@H](Cc1ccc(O)cc1)NC(=O)[C@H](CCCCN)NC(=O)[C@H](CO)NC(=O)[C@H](CC(C)C)NC(=O)[C@H](CC(=O)O)NC(=O)[C@H](CO)NC(=O)[C@@H](NC(=O)[C@H](Cc1ccccc1)NC(=O)[C@@H](NC(=O)CNC(=O)[C@H](CCC(N)=O)NC(=O)C(C)(C)NC(=O)[C@@H](N)Cc1c[nH]cn1)[C@@H](C)O)[C@@H](C)O)C(C)C)C(=O)N[C@@H](CC(N)=O)C(=O)N[C@@H](CCCCNC(=O)CC[C@H](NC(=O)CC[C@H](NC(=O)COCCOCCNC(=O)COCCOCCNC(=O)CC[C@H](NC(=O)CCCCCCCCCCCCCCCCC(=O)O)C(=O)O)C(=O)O)C(=O)O)C(N)=O [Example 12, N^ε29-[(4S)-4-carboxy-4-[[(4S)-4-carboxy-4-[[2-[2-[2-[[2-[2-[2-[[(4S)-4-carboxy-4-(17-carboxyheptadecanoylamino)butanoyl]amino]ethoxy]ethoxy]acetyl]amino]ethoxy]ethoxy]acetyl]amino]butanoyl]amino]butanoyl]-[Aib2,Leu10,Arg20,Glu21,Leu27,Lys29]-Glucagon amide] (H-H[Aib]QGTFTSDLSKYLDSRRAREFVQWLLNK([γGlu-γGlu-AEEA-AEEA-γGlu-C18 diacid])-NH2) yielded an IC50 of 0.5 nM. CC(C)C[C@H](NC(=O)[C@H](Cc1ccc(O)cc1)NC(=O)[C@H](CCCCN)NC(=O)[C@H](CO)NC(=O)[C@H](CC(C)C)NC(=O)[C@H](CC(=O)O)NC(=O)[C@H](CO)NC(=O)[C@@H](NC(=O)[C@H](Cc1ccccc1)NC(=O)[C@@H](NC(=O)CNC(=O)[C@H](CCC(N)=O)NC(=O)C1(NC(=O)[C@@H](N)Cc2c[nH]cn2)CCC1)[C@@H](C)O)[C@@H](C)O)C(=O)N[C@@H](CCC(=O)O)C(=O)N[C@@H](CCC(=O)O)C(=O)N[C@@H](CCCNC(=N)N)C(=O)N[C@@H](CCCNC(=N)N)C(=O)N[C@@H](C)C(=O)N[C@@H](CCCNC(=N)N)C(=O)N[C@@H](CC(=O)O)C(=O)N[C@@H](Cc1ccccc1)C(=O)N[C@H](C(=O)N[C@@H](CCC(N)=O)C(=O)N[C@@H](Cc1c[nH]c2ccccc12)C(=O)N[C@@H](CC(C)C)C(=O)N[C@@H](CC(C)C)C(=O)N[C@@H](CCCCNC(=O)CNC(=O)[C@H](CO)NC(=O)[C@H](CCC(=O)O)NC(=O)CNC(=O)[C@H](CO)NC(=O)CC[C@H](NC(=O)CC[C@H](NC(=O)CCCCCCCCCCCCCCCCC(=O)O)C(=O)O)C(=O)O)C(=O)N[C@H](C(N)=O)[C@@H](C)O)C(C)C [Example 16, N^ε28-[2-[[(2S)-2-[[(2S)-4-carboxy-2-[[2-[[(2S)-2-[[(4S)-4-carboxy-4-[[(4S)-4-carboxy-4-(17-carboxyheptadecanoylamino)butanoyl]amino]butanoyl]amino]-3-hydroxypropanoyl]amino]acetyl]amino]butanoyl]amino]-3-hydroxypropanoyl]amino]acetyl]-[Acb2,Leu10,Glu15,Glu16,Arg20,Leu27,Lys28]-Glucagon amide] (I: H-H[Ac4c]QGTFTSDLSKYLEERRARDFVQWLLKT-NH2 / II: {C18 diacid-γGlu-γGlu}-SGESG; amide I:28-II:C; N-terminus assumed) gave an IC50 of 0.2 nM. CC(C)C[C@H](NC(=O)[C@H](Cc1c[nH]c2ccccc12)NC(=O)[C@H](C)NC(=O)[C@@H](NC(=O)[C@H](Cc1ccccc1)NC(=O)[C@H](CCC(=O)O)NC(=O)[C@H](CCCNC(=N)N)NC(=O)[C@H](C)NC(=O)[C@H](CCCNC(=N)N)NC(=O)[C@H](CCCNC(=N)N)NC(=O)[C@H](CCCCNC(=O)CC[C@H](NC(=O)COCCOCCNC(=O)COCCOCCNC(=O)CC[C@H](NC(=O)CC[C@H](NC(=O)CCCCCCCCCCCCCCCCC(=O)O)C(=O)O)C(=O)O)C(=O)O)NC(=O)[C@H](CC(=O)O)NC(=O)[C@H](CC(C)C)NC(=O)[C@H](Cc1ccc(O)cc1)NC(=O)[C@H](CCCCN)NC(=O)[C@H](CO)NC(=O)[C@H](CC(C)C)NC(=O)[C@H](CC(=O)O)NC(=O)[C@H](CO)NC(=O)[C@@H](NC(=O)[C@H](Cc1ccccc1)NC(=O)[C@@H](NC(=O)CNC(=O)[C@H](CCC(N)=O)NC(=O)C(C)(C)NC(=O)[C@@H](N)Cc1c[nH]cn1)[C@@H](C)O)[C@@H](C)O)C(C)C)C(=O)N[C@@H](CC(C)C)C(=O)N[C@@H](CC(N)=O)C(=O)N[C@H](C(N)=O)[C@@H](C)O [Example 19, N^ε29-[(4S)-4-carboxy-4-[[2-[2-[2-[[2-[2-[2-[[(4S)-4-carboxy-4-[[(4S)-4-carboxy-4-(17-carboxyheptadecanoylamino)butanoyl]amino]butanoyl]amino]ethoxy]ethoxy]acetyl]amino]ethoxy]ethoxy]acetyl]amino]butanoyl]-[Aib2,Leu10,Lys16,Arg20,Glu21,Ala24,Leu27]-Glucagon amide] (H-H[Aib]QGTFTSDLSKYLDK([γGlu-AEEA-AEEA-γGlu-γGlu-C18 diacid])RRAREFVAWLLNT-NH2; N-terminus assumed) gave an IC50 of 0.9 nM.
